Columns and labels:
adrenergic receptors β = assay: Affinity for adrenergic receptors; type: binding
adrenergic receptors α2 = assay: Affinity for adrenergic receptors; type: binding
muscarinic receptors = assay: Affinity for muscarinic receptors; type: binding
[1] = system: recapture of serotonine (5-HT) as compared with that of norepinephrine (NE); conditions: selectivity, Scatton 1988; cited from earlier work
[2] = system: anaesthetized female rats under vesical irritation conditions; assay: Vesical capacity in anaesthetized female rats under vesical irritation by diluted acetic acid; type: in vivo, rat; conditions: 2 mg/kg i.v., mean±SEM, n=8
Description: After laparotomy, a bursa was formed at the dome of the bladder, and then a catheter was introduced and ligatured at this bursa. A catheter was implanted at the jugular vein in order to allow administration of the compound A or its solvent. Cystomanometry was performed on the animals placed beforehand on a heating plate, in order to maintain their body temperature around 37° C. A 3-way valve was positioned at the end of the vesical catheter and then connected to a pump allowing perfusion of the bladder (Model “11” plus, Harvard Apparatus) and to a pressure sensor (MX 860/866 Novatrans, Medex Medical). Diluted acetic acid (0.3%) held at room temperature was perfused into the bladder (3 mL/h) in order to induce successive micturitions under vesical irritation conditions. The micturitional profile was continuously recorded by means of a data acquisition system (MacLab/8^e, AD Instruments) and the different urodynamic parameters, including vesical capacity (VC) were determined. […] The compound A (2 mg/kg) or its solvent were then injected intravenously in a volume of 1 mL administered within 5 minutes by means of a syringe pump (Model A-99, Fisher Bioblock Scientific). The effects of the compound A and of its solvent on VC were evaluated at times, 20, 40 and 60 minutes after administration and expressed as a percentage of variation of the basal value (mean±standard error of mean). In both experimental groups (compound A and solvent), the basal values of VC were the same (p>0.05; analysis of variance): 0.045±0.005 mL and 0.042±0.006 mL for the solvent (n=11) and the compound A (n=8), respectively. […] (see compound A group (n=8) in FIG. 2).

human 5-HT2C receptor = human 5-HT2C receptor (Homo sapiens (Human), UniProt P28335); assay: Cellular functional test ([35S]GTPγS binding) on cloned human 5-HT2C receptor in CHO cells; type: cell-based
Chain of human 5-HT2C receptor (P28335 33-458): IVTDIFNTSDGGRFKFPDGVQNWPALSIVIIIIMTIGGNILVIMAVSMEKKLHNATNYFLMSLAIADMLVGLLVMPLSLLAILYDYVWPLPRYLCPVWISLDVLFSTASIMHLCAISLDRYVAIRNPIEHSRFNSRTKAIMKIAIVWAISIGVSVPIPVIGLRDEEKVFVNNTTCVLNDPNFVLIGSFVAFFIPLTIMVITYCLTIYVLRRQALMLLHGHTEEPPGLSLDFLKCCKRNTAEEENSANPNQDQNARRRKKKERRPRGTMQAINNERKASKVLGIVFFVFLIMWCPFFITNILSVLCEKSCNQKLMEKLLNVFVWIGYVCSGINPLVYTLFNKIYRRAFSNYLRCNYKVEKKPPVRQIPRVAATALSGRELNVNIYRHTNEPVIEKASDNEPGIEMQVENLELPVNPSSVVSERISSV
Description: The agonistic and antagonistic activities of the compound A were evaluated in vitro on the human 5-HT2C receptor expressed in Chinese hamster ovarian cells (CHO cells) in a range of concentrations comprised between 1 nM and 100 μM by quantitation of the binding of the specific ligand of the receptor, [^35S]GTPγS, according to a method adapted from Adlersberg (2000) and from Cussac (2002).

5-HT3 = 5-HT3 (Homo sapiens (Human), UniProt P46098); assay: Binding test on cloned human serotoninergic receptor
Chain of 5-HT3 (P46098 24-478): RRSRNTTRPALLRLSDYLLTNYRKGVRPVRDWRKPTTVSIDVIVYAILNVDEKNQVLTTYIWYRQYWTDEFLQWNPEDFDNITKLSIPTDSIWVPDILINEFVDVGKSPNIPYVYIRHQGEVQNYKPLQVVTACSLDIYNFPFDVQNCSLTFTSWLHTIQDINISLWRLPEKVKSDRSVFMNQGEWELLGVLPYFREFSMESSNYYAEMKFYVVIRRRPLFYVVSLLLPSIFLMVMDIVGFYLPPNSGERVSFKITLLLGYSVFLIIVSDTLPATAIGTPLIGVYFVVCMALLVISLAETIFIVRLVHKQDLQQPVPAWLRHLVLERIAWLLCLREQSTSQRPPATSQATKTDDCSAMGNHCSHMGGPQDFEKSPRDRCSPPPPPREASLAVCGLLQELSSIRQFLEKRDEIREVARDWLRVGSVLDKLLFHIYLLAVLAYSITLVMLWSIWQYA
Description: (§1) The affinity of the compound A was evaluated in vitro on 8 cloned human serotoninergic receptors by measuring the specific binding of the ligands to the corresponding receptors according to methods adapted from Mulheron (1994), Bryant (1996), Choi (1994), Hope (1996), Mialet (2000), Rees (1994) and Shen (1993).

5-HT2B (agonist) = 5-HT2B (agonist) (Homo sapiens (Human), UniProt P41595); assay: as above; conditions: 5-HT2B (agonist) site
Chain of 5-HT2B (agonist) (P41595 whole entry): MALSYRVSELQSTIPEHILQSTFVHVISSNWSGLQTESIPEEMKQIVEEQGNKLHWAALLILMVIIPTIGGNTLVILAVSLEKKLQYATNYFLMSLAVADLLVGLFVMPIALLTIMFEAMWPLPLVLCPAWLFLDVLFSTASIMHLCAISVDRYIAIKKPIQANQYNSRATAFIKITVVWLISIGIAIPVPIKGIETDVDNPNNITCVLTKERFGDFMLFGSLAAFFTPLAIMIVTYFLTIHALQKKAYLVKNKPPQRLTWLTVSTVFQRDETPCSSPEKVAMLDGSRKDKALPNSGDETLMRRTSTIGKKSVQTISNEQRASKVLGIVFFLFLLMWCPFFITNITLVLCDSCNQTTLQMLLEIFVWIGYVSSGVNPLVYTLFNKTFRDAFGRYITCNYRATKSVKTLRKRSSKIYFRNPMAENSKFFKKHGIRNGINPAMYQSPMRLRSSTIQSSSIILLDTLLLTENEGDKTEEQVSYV
Description: as §1

5-HT4e = 5-HT4e (Homo sapiens (Human), UniProt Q13639); assay: as above
Chain of 5-HT4e (Q13639 other isoform, or with tags, fused parts or gaps): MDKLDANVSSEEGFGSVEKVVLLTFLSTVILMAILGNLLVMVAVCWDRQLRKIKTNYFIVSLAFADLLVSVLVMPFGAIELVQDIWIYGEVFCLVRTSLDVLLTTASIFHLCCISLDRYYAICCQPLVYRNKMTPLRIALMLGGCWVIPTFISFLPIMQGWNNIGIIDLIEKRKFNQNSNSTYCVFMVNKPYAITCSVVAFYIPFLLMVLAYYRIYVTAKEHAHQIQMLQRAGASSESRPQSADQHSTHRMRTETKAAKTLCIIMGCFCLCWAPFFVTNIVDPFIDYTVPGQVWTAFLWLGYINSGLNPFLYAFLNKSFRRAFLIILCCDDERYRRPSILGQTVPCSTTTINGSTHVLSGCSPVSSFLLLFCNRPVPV
Description: as §1

5-HT2A (agonist) = 5-HT2A (agonist) (Homo sapiens (Human), UniProt P28223); assay: as above; conditions: 5-HT2A (agonist) site
Chain of 5-HT2A (agonist) (P28223 whole entry): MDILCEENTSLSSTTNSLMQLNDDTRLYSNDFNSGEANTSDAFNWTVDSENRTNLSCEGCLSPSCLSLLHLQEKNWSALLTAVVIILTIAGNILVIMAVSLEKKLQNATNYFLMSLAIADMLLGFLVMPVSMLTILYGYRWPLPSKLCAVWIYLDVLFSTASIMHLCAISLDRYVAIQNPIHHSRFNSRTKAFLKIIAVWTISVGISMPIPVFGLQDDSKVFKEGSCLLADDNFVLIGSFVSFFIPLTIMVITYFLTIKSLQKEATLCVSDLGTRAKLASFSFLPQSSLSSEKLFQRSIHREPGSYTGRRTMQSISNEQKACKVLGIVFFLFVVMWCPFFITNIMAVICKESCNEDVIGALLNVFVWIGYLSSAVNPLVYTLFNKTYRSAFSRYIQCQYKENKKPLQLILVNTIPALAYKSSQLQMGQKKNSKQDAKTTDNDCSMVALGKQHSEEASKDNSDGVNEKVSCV
Description: as §1

5-HT5A = 5-HT5A (Homo sapiens (Human), UniProt P47898); assay: as above
Chain of 5-HT5A (P47898 whole entry): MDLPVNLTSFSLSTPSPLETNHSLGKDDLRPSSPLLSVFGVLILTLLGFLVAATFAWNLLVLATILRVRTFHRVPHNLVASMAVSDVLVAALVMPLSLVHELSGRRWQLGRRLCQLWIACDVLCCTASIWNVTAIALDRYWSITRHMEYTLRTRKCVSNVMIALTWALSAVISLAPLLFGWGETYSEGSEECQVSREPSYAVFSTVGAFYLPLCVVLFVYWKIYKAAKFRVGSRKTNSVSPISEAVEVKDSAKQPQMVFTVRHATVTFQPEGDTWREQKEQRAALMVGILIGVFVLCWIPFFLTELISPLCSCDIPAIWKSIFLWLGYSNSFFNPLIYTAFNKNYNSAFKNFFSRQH
Description: as §1

5-HT2C (agonist) = 5-HT2C (agonist) (Homo sapiens (Human), UniProt P28335); assay: as above; conditions: 5-HT2C (agonist) site
Chain of 5-HT2C (agonist) (P28335 33-458): as the sequence (P28335 33-458) above
Description: as §1

5-HT1A = 5-HT1A (Homo sapiens (Human), UniProt P08908); assay: as above
Chain of 5-HT1A (P08908 whole entry): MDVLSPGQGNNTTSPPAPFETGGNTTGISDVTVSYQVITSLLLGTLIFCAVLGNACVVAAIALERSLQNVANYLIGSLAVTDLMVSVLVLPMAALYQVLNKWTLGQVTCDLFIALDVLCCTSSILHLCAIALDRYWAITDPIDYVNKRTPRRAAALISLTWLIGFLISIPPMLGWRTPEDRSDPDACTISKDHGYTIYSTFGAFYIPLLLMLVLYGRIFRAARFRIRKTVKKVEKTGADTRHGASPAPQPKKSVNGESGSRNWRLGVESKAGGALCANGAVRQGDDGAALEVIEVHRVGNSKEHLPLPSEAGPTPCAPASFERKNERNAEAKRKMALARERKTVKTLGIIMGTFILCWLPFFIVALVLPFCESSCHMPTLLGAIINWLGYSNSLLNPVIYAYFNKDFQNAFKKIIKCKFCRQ
Description: as §1

5-HT7 = 5-HT7 (Homo sapiens (Human), UniProt P34969); assay: as above
Chain of 5-HT7 (P34969 whole entry): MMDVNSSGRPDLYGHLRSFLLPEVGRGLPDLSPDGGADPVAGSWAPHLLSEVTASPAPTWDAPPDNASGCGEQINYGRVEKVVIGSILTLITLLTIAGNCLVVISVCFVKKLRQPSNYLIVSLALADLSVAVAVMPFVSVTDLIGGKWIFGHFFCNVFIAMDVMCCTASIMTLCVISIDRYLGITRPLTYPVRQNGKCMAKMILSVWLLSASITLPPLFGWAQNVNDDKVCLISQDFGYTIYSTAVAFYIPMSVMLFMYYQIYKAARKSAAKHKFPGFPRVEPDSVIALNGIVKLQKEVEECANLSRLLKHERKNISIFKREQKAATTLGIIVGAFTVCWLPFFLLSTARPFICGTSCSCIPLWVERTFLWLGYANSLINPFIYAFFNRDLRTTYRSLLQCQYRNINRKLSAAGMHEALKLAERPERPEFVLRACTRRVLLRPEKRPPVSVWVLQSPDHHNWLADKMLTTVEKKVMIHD
Description: as §1

[3] = system: anaesthetized female rabbits under conditions of vesical irritation; assay: Activity of the striated anal sphincter (EMG-SAS) and vesical capacity in anaesthetized female rabbits under vesical irritation by diluted acetic acid; type: in vivo, rabbit
From the text: The effect of 4-[(2-naphthalenyl)-methoxy]-piperidine (compound A) and of its solvent (NaCl 0.9%) on the electromyographic activity of the striated anal sphincter (EMG-SAS), used as a marker of the activity of the urethral sphincter, and on the vesical capacity (VC) was studied in vivo in anaesthetized female rabbits under conditions of vesical irritation induced by intra-vesical perfusion of diluted acetic acid (Perez Martinez et al., 2006 and Haab et al., 2006). […] 16 New Zealander female white rabbits (2.5-3.5 kg) anaesthetized by intramuscular injection of a mixture of ketamin (25 mg/kg) and sylazin (10 mg/kg), were subject to cystostomy. After laparotomy by median incision, a catheter was introduced at the dome of the bladder and held in place by a purse suture. A multiperforable plug was placed at the end of the catheter, and then the catheter was internalized subcutaneously and attached at the abdomen with a silk ligature. 3 days after cystotomy, cystomanometry was performed on animals anaesthetized with halothane (2-3%). A T-tube was connected at the multiperformable plug, and then connected to a pressure sensor (Letica, PanLab) and to a micro-pump allowing perfusion of the bladder (Razel 99, Scientific Instruments). […] The micturitional profile was continuously recorded by means of a data acquisition system (PowerLab 4/25, PanLab) and the different urodynamic parameters, including vesical capacity (VC), were determined. […] The electric signal, amplified and filtered (bandwidth 1 Hz-5 kHz) was continuously recorded by means of the data acquisition system. EMG-SAS was measured during the phase for filling the bladder, in order to get rid of the parasitics related to perineal movements occurring during micturition.
A catheter was implanted at the vein of the ear in order to allow administration of compound A or of its solvent (NaCl 0.9%) in a volume of 1 mL. […] During a stabilization period (SP) of at least 60 minutes, during which the bladder was perfused, in order to induce regular micturitional cycles, two consecutive doses (1 and 3 mg/kg of compound A or of solvent were administered intravenously, at intervals of 40 minutes. For each of the tested doses, the effects of the compound A and of its solvent on EMG-SAS and on VC were expressed as a percentage of the stabilization period (mean±standard error of mean). During the stabilization period, the parameters obtained in both experimental groups (compound A and solvent) were the same (p>0.05; Kruskal-Wallis test): for EMG-SAS, 1.76±1.04 (n=8) and 1.41±0.59 activity peaks/minute (n=8), for the compound A and its solvent and for VC, respectively, 21.63±4.92 (n=8) and 18.31±2.90 mL (n=8), for the compound A and its solvent respectively. […]

[4] = system: 5-HT7 receptor in isolated rat bladder; assay: Potentialization by serotonin of the neurogenic response of isolated rat bladder (5-HT7 antagonistic functional test); conditions: after incubation with 10 μM of compound A; n=6; solvent 52.7±7.3%
Description: The effect of the compound A and of its solvent (Krebs solution) on the potentialization by serotonin of the neurogenic response of isolated rat bladder was studied in vitro. Strips of detrusor muscle taken from Wistar female rats (250-300 grams) were mounted in baths with isolated organs, containing a Krebs solution, heated to 37° C. and oxygenated with carbogen (95% O2 and 5% CO2). After a 60 minute stabilization period, contraction with 80 mM KCl was achieved. After 30 minutes of wash-out and stabilization, the strips were submitted to electric field stimulation, in order to cause neurogenic contractions. The electric stimulation parameters used were the following: frequency: 5 Hz, maximal voltage, pulse duration 0.3 ms, 10 second pulse trains every 60 s. The compound A and its solvent are incubated for 60 minutes, 30 minutes without electric stimulation and 30 minutes during the phase for stabilizing the neurogenic response. After stabilization, a 5-HT cumulative concentration-response curve range was achieved between 0.01-100 μM.

human detrusor muscle = assay: Electrically stimulated human detrusor muscle strips in vitro
Description: The effect of the compound A and of its solvent (Krebs solution) was tested in vitro on bladder strips taken on two male patients within the scope of a radical cystectomy because of an urothelial carcinoma. The strips were mounted in baths with isolated organs, containing a Krebs solution, heated to 37° C. and oxygenated with carbogen (95% O2 and 5% CO2). After a 60 minute stabilization period, the viability of the strips was tested by performing a contraction with 80 mM KCl. After 30 minutes of wash-out and stabilization, the strips were submitted to electric field stimulation, in order to cause neurogenic contractions. The electric stimulation parameters used were the following: frequency: 30 Hz, maximum voltage, pulse duration 0.1 ms, 5 second pulse trains every 100 s. After stabilization of the neurogenic response (about 30 minutes after beginning of the electric stimulation), a range of cumulative concentration-response curves for the compound A was obtained between 0.01-100 μM. It was shown that from 10 μM, the compound A inhibits in a concentration-dependent way, the contractile response of the detrusor muscle strips to electric stimulation with inhibition percentages of 20.1±4.7% at 10 μM, 41.7±5.2% at 30 μM and 80.8±6.8% at 100 μM. Tested under the same conditions, the solvent of the compound A has an inhibiting effect of the order of 10% on the contractions of the detrusor muscle.

[5] = system: recapture of serotonin as compared with that for dopamine (DA); conditions: selectivity, Scatton 1988; cited from earlier work
adrenergic receptors α1 = assay: Affinity for adrenergic receptors; type: binding
[6] = 1 mg/kg intravenously, relative to stabilization period

In the case of `c1ccc2cc(COC3CCNCC3)ccc2c1` [Compound A, 4-[(2-naphthalenyl)-methoxy]-piperidine], the IC50 (adrenergic receptors β) is reported as 100000 nM, the IC50 (adrenergic receptors α2) is reported as 70000 nM and the IC50 (muscarinic receptors) is reported as 99000 nM. For the same molecule, the “IC50 NE/HT ratio” value [1] was 89, the “increase in VC, percentage of variation of the basal value” ([2]; 20 minutes after administration) was 46.25±16.40% and the “increase in VC, percentage of variation of the basal value” ([2]; 40 minutes after administration) was 44.61±17.51%. For the same molecule, the “increase in VC, percentage of variation of the basal value” ([2]; 60 minutes after administration) was 60.34±17.8%, the antagonistic activity (human 5-HT2C receptor; 10 μM) was 18% and the agonistic activity (human 5-HT2C receptor; 3.10^−5 M (plateau)) was 44%. For the same molecule, the agonistic activity (human 5-HT2C receptor; 10^−4 M (plateau)) was 42%, the IC50 (human 5-HT2C receptor; agonistic activity, [35S]GTPγS, CHO cells, read-out: IC50 (partial agonist for the 5-HT2C receptor)) was 1500 nM and the antagonistic activity (human 5-HT2C receptor; between 1 nM and 1 μM) was “Without any significant antagonistic activity”. It also gave an IC50 (5-HT3) of 1400 nM, a Ki (5-HT3; Cheng Prusoff) of 720 nM and an IC50 (5-HT2B (agonist)) of 1000 nM. It also gave a Ki (5-HT2B (agonist); Cheng Prusoff) of 980 nM, an IC50 (5-HT4e) of 4700 nM and a Ki (5-HT4e; Cheng Prusoff) of 1600 nM. For the same molecule, the IC50 (5-HT2A (agonist)) was 1000 nM, the Ki (5-HT2A (agonist); Cheng Prusoff) was 620 nM and the “inhibition of the specific binding of the control” value (5-HT5A) was 1%. The IC50 (5-HT2C (agonist)) was 250 nM, the Ki (5-HT2C (agonist); Cheng Prusoff) was 200 nM and the “inhibition of the specific binding of the control” value (5-HT1A) was 14%. For the same molecule, the IC50 (5-HT7) was 7200 nM, the Ki (5-HT7; Cheng Prusoff) was 2600 nM and the “effect on EMG-SAS (electromyographic activity of the striated anal sphincter)” value [3, 6] was “did not induce any significant effect”. The “effect on vesical capacity (VC)” value [3, 6] was “did not induce any significant effect”, the “increase in EMG-SAS, percentage of the stabilization period” value ([3]; 3 mg/kg intravenously, mean±SEM, n=7, p=0.018) was 1,521.90±966.61% and the “increase in VC, percentage of the stabilization period” value ([3]; 3 mg/kg intravenously, mean±SEM, n=8) was 123.29±11.62%. The “maximum response of 5-HT, % of the reference contraction induced by 80 mM KCl” value [4] was 18.7±3.2%, the “inhibition of the contractile response of detrusor muscle strips to electric stimulation” value (from here on “inhibition … to electric stimulation”) (human detrusor muscle; 10 μM) was 20.1±4.7% and the “inhibition … to electric stimulation” value (human detrusor muscle; 30 μM) was 41.7±5.2%. For the same molecule, the “inhibition … to electric stimulation” value (human detrusor muscle; 100 μM) was 80.8±6.8%, the “IC50 DA/HT ratio” value [5] was 188 and the IC50 (adrenergic receptors α1) was 40000 nM.

— patent US9511061B2, “Incontinence treatment methods” (IXALTIS, priority 2005, dated 2016)
